The nature of test [1]: Inhibition of HIV1 envelope glycoprotein-mediated cell-cell fusion between HL2/3 cells stably expressing HIV Gag, Env, Tat, Rev and Nef proteins and human TZM-bl cells stably expressing high CD4 and CCR5 incubated for 6 to 8 hrs by luciferase reporter assay.
Test [2] in a line: Inhibition of Ebola virus Sudan envelope glycoprotein-mediated cell entry in human HuH7 cells treated with 30 mins pre-treated pseudovirus/compopund mixture and measured after 72 hrs by luciferase reporter assay. On the technique in general: Reporter assays use an easily measured gene product as a stand-in for the process of interest.

Where a SMILES comes first, the peptide text is derived from it. [ ]: non-standard residue; d: D form. The star is where a group is joined. Palmitoyl = CCCCCCCCCCCCCCCC(=O)*; βAla = NCCC(=O)O

By EC50 is commonly meant the concentration giving half of the maximal effect. As to `CCCCCCCCCCCCCCCC(=O)NCCCC[C@H](NC(=O)CCNC(=O)[C@H](CCCCN)NC(=O)[C@H](CCCCN)NC(=O)[C@H](CCC(N)=O)NC(=O)[C@@H](NC(=O)[C@H](CCC(=O)O)NC(=O)[C@H](CCC(=O)O)NC(=O)[C@@H](NC(=O)[C@H](CCCCN)NC(=O)[C@H](CCCCN)NC(=O)[C@H](CCC(N)=O)NC(=O)[C@@H](NC(=O)[C@H](CCC(=O)O)NC(=O)[C@H](CCC(=O)O)NC(=O)[C@@H](NC(=O)[C@H](CCCCN)NC(=O)[C@H](CCCCN)NC(=O)[C@H](CCC(N)=O)NC(=O)[C@@H](NC(=O)[C@H](CCC(=O)O)NC(=O)[C@H](CCC(=O)O)NC(=O)[C@@H](NC(=O)[C@H](CCCCN)NC(=O)[C@H](CCCCN)NC(=O)[C@H](CCC(N)=O)NC(=O)[C@@H](NC(=O)[C@H](CCC(=O)O)NC(=O)[C@H](CCC(=O)O)NC(=O)[C@@H](NC(=O)[C@H](CCCCN)NC(=O)[C@H](CCCCN)NC(=O)[C@H](CCC(N)=O)NC(=O)[C@@H](NC(=O)[C@H](CCC(=O)O)NC(=O)[C@H](CCC(=O)O)NC(=O)[C@@H](NC(C)=O)[C@@H](C)CC)[C@@H](C)CC)[C@@H](C)CC)[C@@H](C)CC)[C@@H](C)CC)[C@@H](C)CC)[C@@H](C)CC)[C@@H](C)CC)[C@@H](C)CC)[C@@H](C)CC)C(N)=O` (Ac-IEEIQKKIEEIQKKIEEIQKKIEEIQKKIEEIQKK[βAla]K(Palmitoyl)-NH2), the concentration for a half-maximal effect (EC50) in test [1] came out at 3.63 µM; in test [2], 1.02 µM.

These data come from BindingDB's records for doi:10.1021/acs.jmedchem.8b00890 (Beijing Institute of Pharmacology and Toxicology, 2018).
